Experimental data taken from patent US4053632A, “Compounds of spiro-amine type and methods for their use” (priority 1971, dated 1977).
“Also recorded” adds a separate entry of the source. Where two headings read alike, the source gives them in different places.

Tests used:
[1] = tested on: uptake of noradrenaline (cortex slices); assay: Inhibition of the uptake of tritiated noradrenaline in vitro (brain slices); format: biochemical; settings: dl-noradrenaline 10^-7 M
[2] = tested on: uptake of noradrenaline (cortex slices); assay: Inhibition of the uptake of tritiated noradrenaline in vivo; settings: for ED50: ip, read-out: Inhibition (50 %) of uptake in vivo, NA; for effectiveness in blocking the uptake of noradrenaline in vivo relative to imipramine: versus imipramine
Method: The animals were killed half or one hour after the administration of the drugs in vivo (i.p.). The slices, made from cortex, were preincubated for five minutes and incubated with 0.1 μmole per ml of ^3 H-noradrenaline for further five minutes. The incubation mixture consisted of 0.2 μmole of ^3 H-NA and the brain slices in 2 ml of Krebs-Henseleits buffer, pH 7.4. The radioactive ^3 H-NA taken up in the slices was extracted with ethanol and the amount was determined by liquid scintillation. The dose producing 50 per cent decrease of the active uptake (ED50) was determined graphically from dose response curves. At least four animals were used at each dose level.

[3] = tested on: uptake of 5-HT (midbrain slices); assay: Inhibition of the uptake of tritiated 5-HT in vitro (brain slices); format: biochemical, mouse
motor activity = assay: Motor activity in mice; format: in vivo, mouse; settings: mice; for ED50: Mus musculus, 1 h; for sedation (motor activity) versus CPZ: in words
Method: The exploratory activity of mice was recorded in a locomotion cage in which the movements were counted each time the animals cross-circuits on electrical current in the bottom plate. […] The animals were tested individually. Groups of six mice were used and the mice were only used once. The activity was expressed in percent of the activity of control groups ran simultaneously.
Sedative activity was defined as suppression of normal motor activity. The motor activity in mice was automatically recorded in a locomotion cage in which the movements are counted each time the animal short-circuits an electrical current in the bottom plate. […] The animals were tested individually. Groups of six mice were used. The activity was expressed in percent of the activity of control groups run simultaneously.

pupil width (mydriasis) [4] = assay: Peripheral anticholinergic (parasympatholytic) effect, mydriasis in mice; settings: for Peripheral anti-cholinergic action PD200: i.v., dose increasing the pupil by 200%
Method: (§1) The compounds were given by intravenous route to 3 mice. […] Seizures, gait, sedation and grip strength were recorded.
(§2) Acute toxicity was tested by the intraveneous, intraperitoneal and oral routes of administration. […] During the oral route a behavioral scoring system was used in order to relate changes in behavior to dose. The LD50 values were determined graphically from log dose -- response curves based on four doses with three animals per dose. Peripheral parasympatholytic effect was tested in mice by observing the mydriatic effect after intravenous injection (9) (four doses with three animals per dose). PD200 refers to the dose which increases the pupil width by 200%.

[5] = tested on: uptake of 5-HT (midbrain slices); assay: Inhibition of the uptake of tritiated 5-HT in vivo; design: species or system mouse; settings: Mus musculus, ip, 0.5 h; i.p., in vivo; read-out: Inhibition (50 %) of uptake in vivo, 5-HT
Method: The drugs were administered intraperitoneally half an hour before the animals were killed and the midbrain was taken out and sliced and incubated in a mixture consisting of, per 100 mg of brain slices, 0.2 μmole of ^3 H-5-HT and 1 μmole of glucose in 2 ml of Krebs-Henseleit buffer, pH 7.4. The incubation time was 5 minutes with 5 minutes of preincubation before ^3 H-5-HT was added. The radioactive ^3 H-5-HT taken up in the slices was extracted with ethanol and the amount was determined by liquid scintillation. The dose producing 50 per cent decrease of the active uptake (ED50) was determined graphically from dose response curves. Active uptake is defined as that part of the radioactive uptake which is inhibited by a high concentration of cocaine. All doses were given at least to four animals.

in vivo = settings: mouse
Method: as §1, §2

5-HTP response = 5-HTP response potentiation test; format: in vivo, mouse; settings: for minimal effective dose: Mus musculus, ip
Method: These small movements are quantitatively measured in an activity box, type Animex, which can distinguish between small and gross movements. The activity is measured during 20 minutes and only in the case the animals have a fullblown syndrome.

l-Dopa response = assay: Dopa response potentiation test; format: in vivo, mouse
Method: This test is developed by G.M. Everett (Antidepressant drugs,[…] in groups of 3 are pretreated with Pargyline ®40 l mg/kg p.o. about 10-16 hours before the test. […] 1. piloerection, slight salivation, slight increased motor activity 2. piloerection, salivation, marked increased motor activity and irritability 3. piloerection, profuse salivation, marked irritability and reactivity, jumping, squeaking, fighting.

mice = assay: Acute toxicity in mice; settings: in words
Method: as §1, §2

pupil width (mydriasis) [6] = settings: mouse, in vivo, iv, 10 min
Method: as §1, §2

[7] = tested on: conditioned avoidance response (CAR); assay: Conditioned avoidance response in rats; format: in vivo, rat; settings: rat; for CAR CD50: i.p., 60 min; for effect on conditioned avoidance response: in words
Method: For this reason the conditioned avoidance test has been developed for initial screening of neuroleptics. Rats were trained to avoid electrical shock by jumping from one compartment to the other in a shuttle box. The conditioned stimulus consists of an auditory signal which after eight seconds was followed by the electrical shock. The rates were trained to a criterion of making eight out of ten responses correctly. The drugs were injected one hour before the test. The avoidance responses are expressed in percentage of those before administration. CD50 is the dose which reduces the avoidance response to 50% of control values.

[8] = Mus musculus, ip; read-out: Potentiation of l-Dopa, effective dose
[9] = ip, i.p., read-out: Motor activity ID50 (Table 4)

CNC1C=CC2(CC1)c1ccccc1C=Cc1ccccc12 (stereo not shown) [CPG 264]
Inhibition (50 %) of uptake in vitro, NA [1]: 0.3 µg/mL | ED50 [2]: 1.3 mg/kg | effectiveness in blocking the uptake of noradrenaline in vivo relative to imipramine [2]: about three times as effective as imipramine | Inhibition (50 %) of uptake in vitro, 5-HT [3]: 1.3 µg/mL | ED50 (motor activity; read-out: Motor activity ID50): 13 mg/kg | Peripheral anti-cholinergic action PD200 (pupil width (mydriasis) [4]): 2.5 mg/kg | ED50 [5]: > 40 mg/kg | LD50 at 24 h (in vivo; iv): 25 mg/kg | minimal effective dose (5-HTP response): > 25 mg/kg | minimal effective dose (l-Dopa response; [8]): > 10 mg/kg

CN(C)C1C=CC2(CC1)c1ccccc1C=Cc1ccc(Cl)cc12 (stereo not shown) [SIR 114]
Inhibition (50 %) of uptake in vitro, NA [1]: 2.5 µg/mL | ED50 [2]: > 40 mg/kg | Inhibition (50 %) of uptake in vitro, 5-HT [3]: 7 µg/mL | acute toxicity versus CPZ (mice): intravenous toxicity in the same range as CPZ | ED50 (motor activity; read-out: Motor activity ID50): 5.5 mg/kg | ED50 (motor activity; [9]): 5.5 mg/kg | sedation (motor activity) versus CPZ (motor activity): caused sedation in the mice at about the same dose as CPZ | PD200 (Table 4) (pupil width (mydriasis) [6]): 15 mg/kg | Peripheral anti-cholinergic action PD200 (pupil width (mydriasis) [6]): 15 mg/kg | ED50 [5]: > 40 mg/kg | LD50 at 24 h (in vivo; ip): 130 mg/kg | LD50 at 24 h (in vivo; iv): 22 mg/kg | minimal effective dose (5-HTP response): > 25 mg/kg | minimal effective dose (l-Dopa response; [8]): > 10 mg/kg

CN(C)CCCN1c2ccccc2CCc2ccccc21 [Imipramine, reference compound]
Inhibition (50 %) of uptake in vitro, NA [1]: 0.06 µg/mL | ED50 [2]: 6 mg/kg | Inhibition (50 %) of uptake in vitro, 5-HT [3]: 0.1 µg/mL | ED50 (motor activity; read-out: Motor activity ID50): 45 mg/kg | Peripheral anti-cholinergic action PD200 (pupil width (mydriasis) [4]): 13 mg/kg | anticholinergic effects (pupil width (mydriasis) [4]; in words): anticholinergic effects shared by imipramine | ED50 [5]: 24 mg/kg | minimal effective dose (5-HTP response): 25 mg/kg | potentiation of dl-5-HTP (5-HTP response; reference, in words): constantly potentiated dl-5-HTP | minimal effective dose (l-Dopa response; Mus musculus, ip, read-out: Potentiation of l-Dopa, effective dose): 10 mg/kg

NC1CCC2(CC1)c1ccccc1C=Cc1ccccc12 [CPG 191]
Inhibition (50 %) of uptake in vitro, NA [1]: 1.5 µg/mL | ED50 [2]: > 40 mg/kg | Inhibition (50 %) of uptake in vitro, 5-HT [3]: 2 µg/mL | ED50 (motor activity; read-out: Motor activity ID50): 53 mg/kg | Peripheral anti-cholinergic action PD200 (pupil width (mydriasis) [6]): < 10 mg/kg | ED50 [5]: > 40 mg/kg | LD50 at 24 h (in vivo; iv): 32 mg/kg | minimal effective dose (5-HTP response): > 25 mg/kg | minimal effective dose (l-Dopa response; [8]): > 10 mg/kg

CN(C)C1C=CC2(CC1)c1ccccc1C=Cc1ccccc12 (stereo not shown) [CPG 146]
Inhibition (50 %) of uptake in vitro, NA [1]: 0.02 µg/mL | ED50 [2]: 1.7 mg/kg | effectiveness in blocking the uptake of noradrenaline in vivo relative to imipramine [2]: about three times as effective as imipramine | Inhibition (50 %) of uptake in vitro, 5-HT [3]: 4 µg/mL | Peripheral anti-cholinergic action PD200 (pupil width (mydriasis) [4]): 1 mg/kg | ED50 [5]: > 40 mg/kg | LD50 at 24 h (in vivo; iv): 30 mg/kg

CN(C)C1CCC2(CC1)c1ccccc1C=Cc1ccccc12 [CPG 147]
Inhibition (50 %) of uptake in vitro, NA [1]: 0.05 µg/mL | ED50 [2]: 1.5 mg/kg | effectiveness in blocking the uptake of noradrenaline in vivo relative to imipramine [2]: about three times as effective as imipramine | Inhibition (50 %) of uptake in vitro, 5-HT [3]: 4 µg/mL | ED50 (motor activity; read-out: Motor activity ID50): 27 mg/kg | Peripheral anti-cholinergic action PD200 (pupil width (mydriasis) [4]): 1 mg/kg | ED50 [5]: > 40 mg/kg | LD50 at 24 h (in vivo; iv): 32 mg/kg | minimal effective dose (5-HTP response): > 25 mg/kg | minimal effective dose (l-Dopa response; [8]): 2.5 mg/kg

CN(C)C1CCC2(CC1)c1ccccc1C=Cc1ccc(Cl)cc12 (stereo not shown) [SIR 118]
Inhibition (50 %) of uptake in vitro, NA [1]: 1.5 µg/mL | ED50 [2]: > 40 mg/kg | Inhibition (50 %) of uptake in vitro, 5-HT [3]: 4 µg/mL | acute toxicity versus CPZ (mice): intravenous toxicity in the same range as CPZ | ED50 (motor activity; read-out: Motor activity ID50): 11 mg/kg | ED50 (motor activity; [9]): 11 mg/kg | sedation (motor activity) versus CPZ (motor activity): somewhat less active | Peripheral anti-cholinergic action PD200 (pupil width (mydriasis) [6]): 9 mg/kg | ED50 [5]: > 40 mg/kg | LD50 at 24 h (in vivo; iv): 18 mg/kg | minimal effective dose (5-HTP response): > 25 mg/kg | minimal effective dose (l-Dopa response; [8]): > 10 mg/kg

CN(C)C1C=CC2(CC1)c1ccccc1CCc1ccc(Cl)cc12 (stereo not shown) [SIR 124]
CAR CD50 [7]: > 10 mg/kg | effect on conditioned avoidance response [7]: relatively weak effect on CAR

CN(C)C1CCC2(CC1)c1ccccc1CCc1ccc(Cl)cc12 (stereo not shown) [SIR 117]
Inhibition (50 %) of uptake in vitro, NA [1]: 1.5 µg/mL | ED50 [2]: > 40 mg/kg | Inhibition (50 %) of uptake in vitro, 5-HT [3]: 5 µg/mL | acute toxicity versus CPZ (mice): intravenous toxicity in the same range as CPZ | ED50 (motor activity; read-out: Motor activity ID50): 14 mg/kg | ED50 (motor activity; [9]): 14 mg/kg | sedation (motor activity) versus CPZ (motor activity): somewhat less active | PD200 (Table 4) (pupil width (mydriasis) [6]): 15 mg/kg | Peripheral anti-cholinergic action PD200 (pupil width (mydriasis) [6]): 15 mg/kg | ED50 [5]: > 40 mg/kg | LD50 at 24 h (in vivo; iv): 27 mg/kg | minimal effective dose (5-HTP response): > 25 mg/kg | minimal effective dose (l-Dopa response; [8]): > 10 mg/kg

CN(C)C1C=CC2(CC1)c1ccccc1CCc1ccc(Cl)cc12 (stereo not shown) [SIR 125]
CAR CD50 [7]: < 2.5 mg/kg | effect on conditioned avoidance response [7]: more potent than the racemate SIR 109 and also more potent than CPZ; also recorded: more potent than both SIR 109 and chlorpromazine | effect on conditioned avoidance response ([7]; listed as β-isomer): the biological activity mainly originates from the β-isomer

CNC1CCC2(CC1)c1ccccc1C=Cc1ccccc12 [CPG 148]
Inhibition (50 %) of uptake in vitro, NA [1]: 1.5 µg/mL | ED50 [2]: > 40 mg/kg | Inhibition (50 %) of uptake in vitro, 5-HT [3]: 3 µg/mL | ED50 (motor activity; read-out: Motor activity ID50): 35 mg/kg | Peripheral anti-cholinergic action PD200 (pupil width (mydriasis) [4]): 3.5 mg/kg | ED50 [5]: > 40 mg/kg | LD50 at 24 h (in vivo; iv): 60 mg/kg | minimal effective dose (5-HTP response): > 25 mg/kg | minimal effective dose (l-Dopa response; [8]): > 10 mg/kg

CN(C)CCC=C1c2ccccc2CCc2ccccc21 [Amitriptyline, reference compound]
l-Dopa syndrome score (l-Dopa response; 20 mg/kg i.p. 4 hours before l-Dopa): three
